From patent EP3381898A1, “SYMMETRICAL TRIS-ARYL-AMIDE DERIVATIVES AND THEIR USE AS ANTI-HEPARANASE” (priority 2017, dated 2018)
Read-outs that look alike come from different tables or passages of the source.

Experiments:
heparanase = biological target: T1, heparanase (Homo sapiens, UniProt Q9Y251); assay: AGA*IA assay: heparanase-catalyzed fondaparinux cleavage, colorimetric (WST-1); assay type: biochemical
T1 sequence (Q9Y251 158-543 limits assumed): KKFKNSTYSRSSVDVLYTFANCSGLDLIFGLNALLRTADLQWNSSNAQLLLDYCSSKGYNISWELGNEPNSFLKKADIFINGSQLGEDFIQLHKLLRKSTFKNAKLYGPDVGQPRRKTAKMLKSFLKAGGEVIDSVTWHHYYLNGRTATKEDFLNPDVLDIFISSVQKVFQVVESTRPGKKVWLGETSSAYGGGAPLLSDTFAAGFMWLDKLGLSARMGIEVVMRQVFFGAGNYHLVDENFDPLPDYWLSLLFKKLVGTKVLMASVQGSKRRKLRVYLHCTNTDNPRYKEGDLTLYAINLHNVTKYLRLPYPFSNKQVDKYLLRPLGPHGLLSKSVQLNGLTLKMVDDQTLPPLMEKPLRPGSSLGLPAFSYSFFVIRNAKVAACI
T1 sequence (Q9Y251 36-109 limits assumed): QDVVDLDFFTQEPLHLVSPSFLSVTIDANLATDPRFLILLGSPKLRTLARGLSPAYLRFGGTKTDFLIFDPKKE
Description: All compounds were tested in a simple, accurate and robust microplate assay based on the cleavage of the synthetic heparin fragment, the pentasaccharide Fondaparinux (AGA*IA). This assay was originally developed by Hammond and coworkers (Hammond E, Li CP, Ferro V. Development of a colorimetric assay for heparanase activity suitable for kinetic analysis and inhibitor screening. Anal. Biochem. 396(1), 112-116 (2010)), where Fondaparinux corresponds to the methyl glycoside of the antithrombin III (ATIII)-activating pentasaccharide sequence of heparin. Fondaparinux is cleaved by heparanase to generate a reducing disaccharide, which can be quantitatively measured via a colorimetric or a fluorescence assay, the last by the fluorescent sensor polymer-H [Schiemann S, Lühn S, Alban S. Development of both colorimetric and fluorescence heparinase activity assays using fondaparinux as substrate. Anal. Biochem. 427(1), 82-89 (2012)].
The assay measures the appearance of the disaccharide product of heparanase-catalyzed fondaparinux cleavage colorimetrically using the tetrazolium salt WST-1. Assay was essentially performed as described with minor modifications. Briefly, NUNC ELISA 96-well plates were pre-treated with a solution of 4% BSA (bovin serum albumin) in phosphate-buffered saline containing 0.05% Tween 20 (PBST), for 2 h at 37°C, then washed three times with PBST, dried by tapping on paper towel and stored at -20°C. Before use, once again, the plates were washed with PBST.
Assay was carried out with 100 µl/well of assay solution containing 40 mM sodium acetate buffer (pH 5.0), 100 µM fondaparinux, 2.5 nM heparanase and serial dilutions of test compounds (tested in triplicate). Plates were sealed with adhesive tape and incubated, in the dark, for 3 h at 37°C, followed by development with 1.69 mM of the tetrazolium salt WST-1 solution in 0.1 M NaOH, for 1 h at 60°C. Then, the absorbance at 560 nm was measured through a microplate reader (Victor 3, Perkin Elmer).
Finally, the measurements were corrected by subtracting both the reagent background and the inner absorbance value of test compound.

[1] = test system: HT1080 (human fibrosarcoma); assay: SRB Cell Cytotoxicity Assay (cell proliferation, 72h); assay type: cell-based; details: HT-1080, 72 h, read-out: Concentration (µM) of test compounds at which the cell growth is inhibited by 50 %. HT1080
Description: (§1) SRB Cell Cytotoxicity Assay is an assay based upon the quantitative staining of cellular proteins by sulforhodamine B (SRB). This assay can be used for high-throughput drug screening ([…], Nature Protocol. 2006, 1, 112). Sulforhodamine B is an anionic aminoxanthene dye that forms an electrostatic complex with the basic amino acid residues of proteins under moderately acid conditions, which provides a sensitive linear response. […] Inhibition of cell proliferation was then measured by the classical colorimetric SRB Cell Cytotoxicity assay. Absorbance was measured by spectrophotometer at a wavelength of 510 nm and cell proliferation was determined as percent with respect to control cells (cells treated with the vehicle alone). EC50 values were then determined by GraphPad Prism.

[2] = test system: U87MG (human glioblastoma astrocytoma); assay: as above; assay type: cell-based; details: U-87 MG, 72 h, read-out: Concentration (µM) of test compounds at which the cell growth is inhibited by 50 %. U87MG
Description: as §1

[3] = test system: U2OS (human osteosarcoma); assay: as above; assay type: cell-based; details: 72 h, read-out: Concentration (µM) of test compounds at which the cell growth is inhibited by 50 %. U2OS
Description: as §1

[4] = Table 1, range activity classes, AGA*IA test on Fondaparinux, read-out: AGAIA assay IC50
[5] = Table 2, classes as in Table 1, read-out: AGA*IA assay

Compound | IC50 (heparanase; AGA*IA screening, read-out: anti-heparanase activity) | IC50 (heparanase; [4]) | IC50 (heparanase; [5]) | EC50 [1] | EC50 [2] | EC50 [3]
Cn1cc(NC(=O)c2cccc(NC(=O)Nc3cccc(C(=O)Nc4cc(C(=O)Nc5cccc(CC(=O)N[C@@H](Cc6ccccc6)C(=O)O)c5)n(C)c4)c3)c2)cc1C(=O)Nc1cccc(CC(=O)N[C@@H](Cc2ccccc2)C(=O)O)c1 [Compound 12e, 2,2'-{carbonylbis[imino-3,1-phenylenecarbonylimino(1-methyl-1H-pyrrole-4,2-diyl)carbonylimino-3,1-phenylene(1-oxoethane-2,1-diyl)imino]}bis(3-phenylpropanoic acid)] | < 0.5 µM | 0.05 to 0.49 µM | 0.05 to 0.49 µM | > 2.5 µM | > 2.5 µM | > 2.5 µM
Cn1cc(NC(=O)Nc2cc(C(=O)Nc3cc(C(=O)Nc4cccc(CC(=O)O)c4)n(C)c3)n(C)c2)cc1C(=O)Nc1cc(C(=O)Nc2cccc(CC(=O)O)c2)n(C)c1 [Compound 17h, 2,2'-{carbonylbis[imino(1-methyl-1H-pyrrole-4,2-diyl)carbonylimino(1-methyl-1H-pyrrole-4,2-diyl)carbonylimino-3,1-phenylene]}diacetic acid] |  | 0.5 to 0.99 µM | 0.5 to 0.99 µM | > 2.5 µM | > 2.5 µM | > 2.5 µM
Cn1cc(NC(=O)c2ccc(Oc3ccc(C(=O)Nc4cc(C(=O)Nc5cccc(CC(=O)N[C@@H](CCC(=O)O)C(=O)O)c5)n(C)c4)cc3)cc2)cc1C(=O)Nc1cccc(CC(=O)N[C@@H](CCC(=O)O)C(=O)O)c1 [Compound 36f, (2S,2'S)-2,2'-((2,2'-(((4,4'-((4,4'-Oxybis(benzoyl))bis(azanediyl))bis(1-methyl-1H-pyrrole-2,2'-carbonyl))bis(azanediyl))bis(3,1-phenylene))bis(acetyl))bis(azanediyl))dipentanedioic acid] |  | 1 to 20 µM |  |  |  | 
CC(C)C[C@H](NC(=O)Cc1cccc(NC(=O)c2cc(NC(=O)c3cc(NC(=O)Nc4cc(C(=O)Nc5cc(C(=O)Nc6cccc(CC(=O)N[C@@H](CC(C)C)B(O)O)c6)n(C)c5)n(C)c4)cn3C)cn2C)c1)B(O)O [Compound 41, ((1R,1'R)-((2,2'-(((4,4'-((4,4'-(carbonylbis(azanediyl))bis(1-methyl-1H-pyrrole-4,2-diyl-2-carbonyl))bis(azanediyl))bis(1-methyl-1H-pyrrole-4,2-diyl-2-carbonyl))bis(azanediyl))bis(3,1-phenylene))bis(acetyl))bis(azanediyl))bis(3-methylbutane-1,1-diyl))diboronic acid] |  | 1 to 20 µM |  |  |  | 
CC(C)C[C@H](NC(=O)Cc1cccc(NC(=O)c2cc(NC(=O)c3ccc(Oc4ccc(C(=O)Nc5cc(C(=O)Nc6cccc(CC(=O)N[C@@H](CC(C)C)B(O)O)c6)n(C)c5)cc4)cc3)cn2C)c1)B(O)O [Compound 42, ((1R,1'R)-((2,2'-(((4,4'-((4,4'-Oxybis(benzoyl))bis(azanediyl))bis(1-methyl-1H-pyrrole-2,2'-carbonyl))bis(azanediyl))bis(3,1-phenylene))bis(acetyl))bis(azanediyl))bis(3-methylbutane-1,1-diyl))diboronic acid] |  | 1 to 20 µM |  |  |  | 
CC(C)C[C@H](NC(=O)Cc1cccc(NC(=O)c2cc(NC(=O)c3cccc(NC(=O)Nc4cccc(C(=O)Nc5cc(C(=O)Nc6cccc(CC(=O)N[C@@H](CC(C)C)B(O)O)c6)n(C)c5)c4)c3)cn2C)c1)B(O)O [Compound 43, ((1R,1'R)-((2,2'-(((4,4'-((3,3'-(Carbonylbis(azanediyl))bis(benzoyl))bis(azanediyl))bis(1-methyl-1H-pyrrole-4,2-diyl-2-carbonyl))bis(azanediyl))bis(3,1-phenylene))bis(acetyl))bis(azanediyl))bis(3-methylbutane-1,1-diyl))diboronic acid] |  | 1 to 20 µM |  |  |  | 
CC(C)C[C@H](NC(=O)CNC(=O)Cc1cccc(NC(=O)c2cc(NC(=O)c3cc(NC(=O)Nc4cc(C(=O)Nc5cc(C(=O)Nc6cccc(CC(=O)NCC(=O)N[C@@H](CC(C)C)B(O)O)c6)n(C)c5)n(C)c4)cn3C)cn2C)c1)B(O)O [Compound 46, ((1R,1'R)-((2,2'-((2,2'-(((4,4'-((4,4'-(carbonylbis(azanediyl))bis(1-methyl-1H-pyrrole-4,2-diyl-2-carbonyl))bis(azanediyl))bis(1-methyl-1H-pyrrole-4,2-diyl-2-carbonyl))bis(azanediyl))bis(3,1-phenylene))bis(acetyl))bis(azanediyl))bis(acetyl))bis(azanediyl))bis(3-methylbutane-1,1-diyl))diboronic acid] |  | 1 to 20 µM |  |  |  | 
CC(C)C[C@H](NC(=O)CNC(=O)Cc1cccc(NC(=O)c2cc(NC(=O)c3cccc(NC(=O)Nc4cccc(C(=O)Nc5cc(C(=O)Nc6cccc(CC(=O)NCC(=O)N[C@@H](CC(C)C)B(O)O)c6)n(C)c5)c4)c3)cn2C)c1)B(O)O [Compound 47, ((1R,1'R)-((2,2'-((2,2'-(((4,4'-((3,3'-(Carbonylbis(azanediyl))bis(benzoyl))bis(azanediyl))bis(1-methyl-1H-pyrrole-4,2-diyl-2-carbonyl))bis(azanediyl))bis(3,1-phenylene))bis(acetyl))bis(azanediyl))bis(acetyl))bis(azanediyl))bis(3-methylbutane-1,1-diyl))diboronic acid] |  | 1 to 20 µM |  |  |  | 
